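Where inhibition never reached the appropriate level, the endpoint shown equals the highest concentration tested. Otherwise, values were interpolated linearly from a five-concentration, 48-hour dose response in 96-well plates. GI50 is the concentration that inhibits growth by half.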 Active and inactive are the calls of the source. No stated cut-off is given here; in the data, active = GI50 up to about 1.1 µM and inactive = higher. *1 amine or outer side, *2 acyl side, *3 side chain or, on linkers, in order; H or OH if unused. Where a SMILES comes first, the peptide text is derived from it. Bridges are numbered along the chain shown (N, C = ends). [ ]: non-standard residue; d: D form. The star is where a group is joined. X56 = CC(C)C(C)C(C(=O)[*:2])N(C)[*:1]; Picolinoyl(3-OH) = O=C(c1ncccc1O)*; NMePhg = CN[CH](C(=O)O)c1ccccc1; Hyp = O=C(O)[CH]1C[CH](O)CN1; Sar = CNCC(=O)O
What was measured:
Assay in all cases: NCI tumour cell line growth inhibition, 48 h
786-0 = test system: 786-0
A549 = test system: A549
ACHN = test system: ACHN
CAKI-1 = test system: CAKI-1
CCRF-CEM = test system: CCRF-CEM
HCT-116 = test system: HCT-116
HL-60 = test system: HL-60
IGROV-1 = test system: IGROV-1
Malme-3M = test system: Malme-3M
NCI-H23 = test system: NCI-H23
NCI-H460 = test system: NCI-H460
OVCAR-8 = test system: OVCAR-8
RXF 393 = test system: RXF 393
SF-268 = test system: SF-268
SK-MEL-28 = test system: SK-MEL-28
SN12C = test system: SN12C
SNB-19 = test system: SNB-19
U-251 = test system: U-251

Measured: GI50

CC1=C[C@]2(O)C(=O)[C@H](C)C[C@H]3[C@@H](CC[C@@](C)(O)/C=C\2C1=O)C3(C)C
inactive: 786-0 18.9 µM | A549 35.5 µM | ACHN 22.4 µM | CAKI-1 25.4 µM | CCRF-CEM 24.8 µM | HCT-116 17.2 µM | HL-60 > 100 µM | IGROV-1 23.4 µM | Malme-3M 22.8 µM | NCI-H23 25.6 µM | NCI-H460 25.5 µM | OVCAR-8 20.5 µM | RXF 393 15.4 µM | SF-268 20.7 µM | SK-MEL-28 18.5 µM | SN12C 20.3 µM | SNB-19 60.7 µM | U-251 21.7 µM

CC(C)CC1NC(=O)C(NC(=O)c2ncccc2O)C(C)OC(=O)C(c2ccccc2)N(C)C(=O)C(C)NC(=O)C(C(C)C(C)C)N(C)C(=O)CN(C)C(=O)C2CC(O)CN2C1=O (centres undefined) ({Picolinoyl(3-OH)}-TL[Hyp][Sar][X56]A[NMePhg]; ester 1-C; configuration not given here)
inactive: A549 52.6 µM | CAKI-1 89.1 µM | CCRF-CEM 60.5 µM | HCT-116 26.9 µM | HL-60 58.9 µM | IGROV-1 23.8 µM | Malme-3M 55.5 µM | NCI-H23 58.6 µM | NCI-H460 12.3 µM | OVCAR-8 15.7 µM | RXF 393 > 125 µM | SF-268 51.3 µM | SK-MEL-28 102 µM | SN12C 65.8 µM | SNB-19 115 µM | U-251 40.8 µM

Cc1ccc(N2C(=O)C(=CN)C(=O)N(c3ccc(C)cc3)C2=O)cc1
inactive: 786-0 > 100 µM | A549 > 100 µM | ACHN 37.9 µM | CAKI-1 31.8 µM | CCRF-CEM 89.9 µM | HCT-116 > 100 µM | HL-60 > 100 µM | IGROV-1 71.9 µM | Malme-3M 47.6 µM | NCI-H23 > 100 µM | NCI-H460 > 100 µM | OVCAR-8 > 100 µM | RXF 393 91.6 µM | SF-268 > 100 µM | SK-MEL-28 > 100 µM | SN12C 51.6 µM | SNB-19 > 100 µM | U-251 10 µM

COc1ccc(/C(C=O)=C(\Cl)c2ccc(OC)c(OC)c2)cc1
inactive: A549 > 100 µM | ACHN > 100 µM | CAKI-1 > 100 µM | CCRF-CEM 52.4 µM | HCT-116 > 100 µM | HL-60 24 µM | IGROV-1 > 100 µM | Malme-3M > 100 µM | NCI-H23 > 100 µM | NCI-H460 > 100 µM | OVCAR-8 75.5 µM | RXF 393 > 100 µM | SF-268 46.1 µM | SN12C > 100 µM | SNB-19 > 100 µM | U-251 32.1 µM

CCCSCC(P(=O)(O)O)P(=O)(O)O.NC1CCCCC1
inactive: A549 > 100 µM | CAKI-1 > 100 µM | CCRF-CEM > 100 µM | HCT-116 > 100 µM | HL-60 > 100 µM | IGROV-1 > 100 µM | Malme-3M > 100 µM | NCI-H23 > 100 µM | NCI-H460 > 100 µM | OVCAR-8 > 100 µM | RXF 393 > 100 µM | SF-268 > 100 µM | SK-MEL-28 > 100 µM | SN12C > 100 µM | SNB-19 > 100 µM | U-251 > 100 µM

NC1=NN(c2ccccc2)C(=O)C1C(=O)C(=O)Nc1ccc(Cl)cc1 (centres undefined)
inactive: 786-0 > 100 µM | A549 > 100 µM | ACHN > 100 µM | CAKI-1 > 100 µM | CCRF-CEM > 100 µM | HCT-116 > 100 µM | HL-60 > 100 µM | IGROV-1 > 100 µM | Malme-3M > 100 µM | NCI-H23 > 100 µM | NCI-H460 > 100 µM | OVCAR-8 > 100 µM | RXF 393 > 100 µM | SF-268 > 100 µM | SK-MEL-28 > 100 µM | SN12C > 100 µM | U-251 > 100 µM

CC(C)[C@@H](C)CC[C@@H](C)C1CC=C2[C@@H]3CCC4C[C@@H](O[Si](C)(C)C(C)(C)C)CC[C@]4(C)C3CC[C@@]21C (some centres undefined)
inactive: 786-0 > 100 µM | A549 > 100 µM | ACHN > 100 µM | CAKI-1 > 100 µM | CCRF-CEM > 100 µM | HCT-116 > 100 µM | HL-60 > 100 µM | IGROV-1 > 100 µM | Malme-3M > 100 µM | NCI-H460 > 100 µM | OVCAR-8 > 100 µM | RXF 393 > 100 µM | SF-268 > 100 µM | SK-MEL-28 > 100 µM | SN12C > 100 µM | SNB-19 > 100 µM | U-251 > 100 µM

COc1ccc(C2C3CCCC(C3=O)C(c3ccc(OC)cc3)N2N=O)cc1 (centres undefined)
inactive: A549 34.7 µM | CAKI-1 29.9 µM | CCRF-CEM 26.1 µM | HCT-116 29 µM | HL-60 25.2 µM | IGROV-1 35.5 µM | Malme-3M 7.85 µM | NCI-H23 19.5 µM | NCI-H460 20.6 µM | OVCAR-8 37 µM | RXF 393 18.9 µM | SF-268 48.5 µM | SK-MEL-28 40.3 µM | SN12C 18.5 µM | SNB-19 36.3 µM | U-251 40.6 µM

N#CC(Nc1cccc(C(F)(F)F)c1)c1ccccc1C(F)(F)F (centres undefined)
inactive: A549 15.3 µM | ACHN 14.5 µM | CAKI-1 2.73 µM | CCRF-CEM 18.4 µM | HCT-116 7.66 µM | HL-60 4.9 µM | IGROV-1 22.7 µM | Malme-3M 7.33 µM | NCI-H23 13.9 µM | NCI-H460 15.5 µM | OVCAR-8 16.3 µM | RXF 393 12.2 µM | SF-268 17.2 µM | SK-MEL-28 17.9 µM | SN12C 7.4 µM | SNB-19 17.3 µM | U-251 16.9 µM

CCOC(=O)c1ccc(O)cc1 [ETHYLPARABEN]
inactive: 786-0 > 100 µM | A549 > 100 µM | ACHN > 100 µM | CAKI-1 > 100 µM | CCRF-CEM > 100 µM | HCT-116 > 100 µM | HL-60 > 100 µM | IGROV-1 > 100 µM | Malme-3M > 100 µM | NCI-H23 > 100 µM | NCI-H460 > 100 µM | RXF 393 > 100 µM | SF-268 > 100 µM | SK-MEL-28 > 100 µM | SNB-19 > 100 µM | U-251 > 100 µM

CC1=CCC2(C#N)CCC1C2O (centres undefined)
inactive: 786-0 64.1 µM | A549 > 100 µM | ACHN > 100 µM | CAKI-1 > 100 µM | CCRF-CEM > 100 µM | HCT-116 > 100 µM | HL-60 > 100 µM | IGROV-1 > 100 µM | Malme-3M > 100 µM | NCI-H460 > 100 µM | OVCAR-8 > 100 µM | RXF 393 > 100 µM | SF-268 > 100 µM | SK-MEL-28 > 100 µM | SN12C > 100 µM | SNB-19 > 100 µM | U-251 > 100 µM
